≈ marks a conversion by molar mass, not a printed value. Where “and” joins values, the source holds several entries; their conditions need not be identical. Equal values may be shown once. Entries after “also recorded” stand apart in the source; their conditions may differ. One block for each molecule: values may come before it.
Columns and labels:
P. aeruginosa ATCC 27853 = assay: MIC alone and MIC of colistin in combination with DNM compounds; format: cell-based; conditions: compound alone, bracket after colistin value is a range (0.25-4)
Method: (§1) The medium employed for the assay was Mueller Hinton II Broth (MHB II; Becton-Dickinson, Sparks, MD, USA). Agar plates used for the organisms were trypticase soy agar plus 5% sheep blood (BD; Sparks, MD, USA). MIC assay plates were prepared using the CLSI broth microdilution procedure. Automated liquid handlers (Multidrop 384, Biomek 2000 and Biomek FX) were used to conduct serial dilutions and liquid transfers. A standardized inoculum of each organism was prepared per CLSI methods. Suspensions were prepared to equal a 0.5 McFarland standard, followed by a 1:20 dilution in test media. The inocula were dispensed into sterile reservoirs divided by length (Beckman Colter) and the Biomek 2000 was used to inoculate the plates. Daughter plates were placed on the Biomek 2000 work surface in reverse orientation so that inoculation took place from low to high drug concentration. The Biomek 2000 delivered 10 μL of the diluted suspension into each well. These inoculations yielded a final cell concentration in the daughter plates of ~5 × 10^5 colony-forming units/mL in each well. The wells of the daughter plates ultimately contained 185 μL of broth, 5 μL of drug solution, and 10 μL of bacterial inoculum. Plates were covered with a sterile lid on the top plate, placed in plastic bags, and incubated at 35 °C for ~18 h. The microplates were viewed from the bottom using a plate viewer and the MIC was read. The MIC was recorded as the lowest concentration of drug that inhibited visible growth of the organism. Uninoculated solubility control plates were also observed for evidence of drug precipitation.
(§2) Compound K. pneumoniae A. baumannii E. coli P. aeruginosa […]
(§3) Supplementary Table 3. Minimum inhibitory concentration (MIC; µg/ml) of DNM
(§4) compounds that show potential synergy in combination with colistin. […]

K. pneumoniae MMX8390 = assay: as above; format: cell-based; conditions: compound alone
Method: as §1, §2, §3, §4

A. baumannii ATCC 19606 = assay: as above; format: cell-based; conditions: compound alone
Method: as §1, §2, §3, §4

E. coli ATCC 25922 = assay: as above; format: cell-based; conditions: compound alone, bracket after colistin value is a range (0.25-2)
Method: as §1, §2, §3, §4

[1] = tested on: 102 ATCC strains and clinical isolates of Staphylococcus, Streptomyces, and Enterococcus; assay: MIC panel summary over all strains; format: cell-based; conditions: of 102 strains
Method: We also sought to determine if DNM0547 was bacteriostatic or bactericidal. Time kill experiments were carried out using increasing doses of DNM0547 against two different strains of MRSA.
as §1, with “organism.” for “organism. Uninoculated solubility control plates were also observed for evidence of drug precipitation.”

S. aureus (MSSA) = assay: MIC, clinical and laboratory strains; format: cell-based
Method: as §1, with “organism.” for “organism. Uninoculated solubility control plates were also observed for evidence of drug precipitation.”

S. aureus (MRSA) = assay: MIC, clinical and laboratory strains; format: cell-based
Method: as §1, with “organism.” for “organism. Uninoculated solubility control plates were also observed for evidence of drug precipitation.”

S. aureus (VISA) = assay: MIC, clinical and laboratory strains; format: cell-based
Method: as §1, with “organism.” for “organism. Uninoculated solubility control plates were also observed for evidence of drug precipitation.”

[2] = Histopathology (H&E) of treated rabbit ischemic ear wounds, dermal toxicity; conditions: Suppl Fig 7, score per wound
Method: Wounds were excised, fixed, and routine H&E staining was performed. Wounds were examined for pathology and scored in a blinded manner.
Post-wounding, under anesthesia, animals were euthanized with an intravenous injection of Beuthanasia-D at a dosage of 150 mg/kg of body weight. Specimens including the entire wound, along with ~2–3 mm of the normal unwounded skin margins were harvested. Each ear wound specimen was sectioned into halves. For one half of the wound, the wound was placed into a container with 10% neutral buffered formalin and processed for routine histological evaluation. Wounds were scored on a scale of 0–4 at the wound site for erythema, edema, inflammation, granulation, angiogenesis, and epithelialization. Wounds were characterized in a blinded manner by a board-certified member of the College of American Pathologists.

MRSA (ATCC 33591) = assay: Rabbit ischemic ear wound model of infection by MRSA, topical treatment; format: in vivo, New Zealand White rabbits; conditions: for % wound closure / wound size (mean) / Wound size (mm2): Fig 2c
Method: New Zealand White rabbits from Charles River were employed for this study. Both male and female rabbits were used; sample size prevented disaggregation of data by sex. Investigators were blinded to group allocation, data collection, and data analysis. Food and water were given ad libidum and animals were acclimatized for 7 days with photoperiods of alternating 12 h light and dark at 21 °C in relative humidity of 40–50%. The formulation for delivery of DNM compounds was Glaxal base (WellSpring Pharmaceutical Canada Corp., Oakville, Canada). Formulation was performed by dissolving compound in Glaxal base to give final concentrations of 1% or 2% DNM compound (w/v). The analgesic (Buprenex 0.02 mg/kg sc) and anesthesia (isoflurane (0.5–5% with oxygen carrier 0.5–2 L/min) were used as required during procedures. An ischemia wound healing model was conducted surgically. Each wound was inoculated with 50 μl of 2 × 10^7 CFU/mL MRSA (ATCC #33591) and dressed. After 1 day, wounds were treated with either 50 μl control cream containing vehicle or 50 μl cream containing compound daily. Wounds were assessed and observations recorded using the Draize scoring system. Digital photographs of each wound were obtained and documented.

MIC (P. aeruginosa ATCC 27853): > 64 µg/mL
MIC (K. pneumoniae MMX8390): > 64 µg/mL
MIC (A. baumannii ATCC 19606): > 64 µg/mL
MIC (E. coli ATCC 25922): > 64 µg/mL
Molecule: CC(C)c1cc(Cl)ccc1-c1cc(C(N)=O)sc1-c1ccc(Cl)cc1C(C)C [DNM0650]

MIC (P. aeruginosa ATCC 27853): > 64 µg/mL
MIC (K. pneumoniae MMX8390): > 64 µg/mL
MIC (A. baumannii ATCC 19606): > 64 µg/mL
MIC (E. coli ATCC 25922): > 64 µg/mL
Molecule: Cc1cc(Cl)ccc1-c1cc(S(N)(=O)=O)sc1-c1ccc(Cl)cc1C [DNM0658]

number of strains tested with MIC not ≤ 2 μg/mL [1]: 26
MIC (S. aureus (MSSA); S. aureus (MSSA) 2127): > 16 µg/mL
MIC (S. aureus (MSSA); S. aureus (MSSA) 6167): 1 µg/mL (≈ 2 µM)
MIC (S. aureus (MSSA); S. aureus (MSSA) 6168): 2 µg/mL (≈ 3.99 µM)
MIC (S. aureus (MSSA); S. aureus (MSSA) 6170): 2 µg/mL (≈ 3.99 µM)
MIC (S. aureus (MSSA); S. aureus (MSSA) 6316): 2 µg/mL (≈ 3.99 µM)
MIC (S. aureus (MSSA); S. aureus (MSSA) 6317): 1 µg/mL (≈ 2 µM)
MIC (S. aureus (MSSA); S. aureus (MSSA) 6318): 2 µg/mL (≈ 3.99 µM)
MIC (S. aureus (MSSA); S. aureus (MSSA) 6499): 1 µg/mL (≈ 2 µM)
MIC (S. aureus (MSSA); S. aureus (MSSA) 6500): 1 µg/mL (≈ 2 µM)
MIC (S. aureus (MSSA); S. aureus (MSSA) 6502): 1 µg/mL (≈ 2 µM)
MIC (S. aureus (MRSA); S. aureus (MRSA) 2167): 0.12 µg/mL (≈ 0.24 µM)
MIC (S. aureus (MRSA); S. aureus (MRSA) 2168): 0.25 µg/mL (≈ 0.499 µM)
MIC (S. aureus (MRSA); S. aureus (MRSA) 2169): 0.25 µg/mL (≈ 0.499 µM)
MIC (S. aureus (MRSA); S. aureus (MRSA) 2170): 0.25 µg/mL (≈ 0.499 µM)
MIC (S. aureus (MRSA); S. aureus (MRSA) 2171): 0.25 µg/mL (≈ 0.499 µM)
MIC (S. aureus (MRSA); S. aureus (MRSA) 2293): 0.25 µg/mL (≈ 0.499 µM)
MIC (S. aureus (MRSA); S. aureus (MRSA) 2294): 0.25 µg/mL (≈ 0.499 µM)
MIC (S. aureus (MRSA); S. aureus (MRSA) 2295): 0.25 µg/mL (≈ 0.499 µM)
MIC (S. aureus (MRSA); S. aureus (MRSA) 2296): 0.25 µg/mL (≈ 0.499 µM)
MIC (S. aureus (MRSA); S. aureus (MRSA) 2297): 0.25 µg/mL (≈ 0.499 µM)
MIC (S. aureus (MRSA); S. aureus (MRSA) 3880): > 16 µg/mL
MIC (S. aureus (MRSA); S. aureus (MRSA) 5373): 1 µg/mL (≈ 2 µM)
MIC (S. aureus (MRSA); S. aureus (MRSA) 5666): 1 µg/mL (≈ 2 µM)
MIC (S. aureus (MRSA); S. aureus (MRSA) 5702): 1 µg/mL (≈ 2 µM)
MIC (S. aureus (MRSA); S. aureus (MRSA) 5999): 1 µg/mL (≈ 2 µM)
MIC (S. aureus (MRSA); S. aureus (MRSA) 6165): 1 µg/mL (≈ 2 µM)
MIC (S. aureus (MRSA); S. aureus (MRSA) 6169): 0.5 µg/mL (≈ 0.999 µM)
MIC (S. aureus (MRSA); S. aureus (MRSA) 6174): 1 µg/mL (≈ 2 µM)
MIC (S. aureus (MRSA); S. aureus (MRSA) 6311): 1 µg/mL (≈ 2 µM)
MIC (S. aureus (MRSA); S. aureus (MRSA) 6312): 1 µg/mL (≈ 2 µM)
MIC (S. aureus (MRSA); S. aureus (MRSA) 6313): 1 µg/mL (≈ 2 µM)
MIC (S. aureus (MRSA); S. aureus (MRSA) 6315): 1 µg/mL (≈ 2 µM)
MIC (S. aureus (MRSA); S. aureus (MRSA) 6320): 1 µg/mL (≈ 2 µM)
MIC (S. aureus (MRSA); S. aureus (MRSA) 6498): 1 µg/mL (≈ 2 µM)
MIC (S. aureus (MRSA); S. aureus (MRSA) 6501): 1 µg/mL (≈ 2 µM)
MIC (S. aureus (MRSA); S. aureus (MRSA) 6505): 1 µg/mL (≈ 2 µM)
MIC (S. aureus (MRSA); S. aureus (MRSA) 6506): 1 µg/mL (≈ 2 µM)
MIC (S. aureus (MRSA); S. aureus (MRSA) NRS382/2119): 1 µg/mL (≈ 2 µM)
MIC (S. aureus (MRSA); S. aureus (MRSA) NRS383/2120): > 16 µg/mL
MIC (S. aureus (MRSA); S. aureus (MRSA) NRS384/2011): 1 µg/mL (≈ 2 µM)
MIC (S. aureus (VISA); S. aureus (VISA) 1724): 0.25 µg/mL (≈ 0.499 µM)
MIC (S. aureus (VISA); S. aureus (VISA) 2012): 1 µg/mL (≈ 2 µM)
MIC (S. aureus (VISA); S. aureus (VISA) 2013): 0.25 µg/mL (≈ 0.499 µM)
MIC (S. aureus (VISA); S. aureus (VISA) 2014): 0.5 µg/mL (≈ 0.999 µM)
MIC (S. aureus (VISA); S. aureus (VISA) 2015): 0.06 µg/mL (≈ 0.12 µM)
MIC (S. aureus (VISA); S. aureus (VISA) 2016): 0.25 µg/mL (≈ 0.499 µM)
MIC (S. aureus (VISA); S. aureus (VISA) 2017): 0.5 µg/mL (≈ 0.999 µM)
MIC (S. aureus (VISA); S. aureus (VISA) 2018): 0.12 µg/mL (≈ 0.24 µM)
MIC (S. aureus (VISA); S. aureus (VISA) 2019): 4 µg/mL (≈ 7.99 µM)
MIC (S. aureus (VISA); S. aureus (VISA) 2123): 0.25 µg/mL (≈ 0.499 µM)
MIC (S. aureus (VISA); S. aureus (VISA) NRS1/1723): 0.25 µg/mL (≈ 0.499 µM)
Molecule: C/C(=C\C(=O)OCCCCCCCCC(=O)O)C[C@@H]1OC[C@H](C[C@@H]2O[C@H]2[C@@H](C)[C@H](C)O)[C@@H](O)[C@H]1O [mupirocin]
Edema [2]: 2
Erythema [2]: 2
Inflammation [2]: 3 and 4
CFUs (MRSA (ATCC 33591); Fig 2b, individual wounds): 0 CFUs (6×) and 4120 CFUs
% wound closure (MRSA (ATCC 33591); Day 1): 0%
wound size (mean) (MRSA (ATCC 33591); Day 1): 34.3 mm2
% wound closure (MRSA (ATCC 33591); Day 3): 3.64%
wound size (mean) (MRSA (ATCC 33591); Day 3): 33.056 mm2
wound size (mean) (MRSA (ATCC 33591); Day 5): 31.872 mm2
% wound closure (MRSA (ATCC 33591); Day 7): 10.3%
wound size (mean) (MRSA (ATCC 33591); Day 7): 30.776 mm2
% wound closure (MRSA (ATCC 33591); Day 10): 22.68%
wound size (mean) (MRSA (ATCC 33591); Day 10): 26.526 mm2
% wound closure (MRSA (ATCC 33591); Day 14): 43.29%
wound size (mean) (MRSA (ATCC 33591); Day 14): 19.45 mm2
% wound closure (MRSA (ATCC 33591); Day 18): 53.8%
wound size (mean) (MRSA (ATCC 33591); Day 18): 15.838 mm2
Wound size (mm2) (MRSA (ATCC 33591); individual wounds, Day 1): 36.53 mm2 and 30.25 mm2 and 32.45 mm2 and 37.03 mm2 and 35.24 mm2
Wound size (mm2) (MRSA (ATCC 33591); individual wounds, Day 3): 33.98 mm2 and 27.23 mm2 and 29.57 mm2 and 36.33 mm2 and 38.17 mm2
Wound size (mm2) (MRSA (ATCC 33591); individual wounds, Day 5): 33.31 mm2 and 25.96 mm2 and 29.21 mm2 and 35.69 mm2 and 35.19 mm2
Wound size (mm2) (MRSA (ATCC 33591); individual wounds, Day 7): 31.43 mm2 and 25.29 mm2 and 28.29 mm2 and 34.94 mm2 and 33.93 mm2
Wound size (mm2) (MRSA (ATCC 33591); individual wounds, Day 10): 30.25 mm2 and 23.34 mm2 and 26.6 mm2 and 26.26 mm2 and 26.18 mm2
Wound size (mm2) (MRSA (ATCC 33591); individual wounds, Day 14): 23.68 mm2 and 17.17 mm2 and 19.28 mm2 and 18.84 mm2 and 18.28 mm2
Wound size (mm2) (MRSA (ATCC 33591); individual wounds, Day 18): 20.63 mm2 and 12.49 mm2 and 12.8 mm2 and 15.19 mm2 and 18.08 mm2
wound healing compared with control (MRSA (ATCC 33591); topical 2%): did not alter wound healing from control; also recorded: not statistically significant

Molecule: colistin [reference compound]
MIC (P. aeruginosa ATCC 27853): 0.25 µg/mL
MIC (K. pneumoniae MMX8390): 16 µg/mL
MIC (A. baumannii ATCC 19606): 0.25 µg/mL
MIC (E. coli ATCC 25922): 0.25 µg/mL
